Laboratory results reported in patent US12071435B2, “TLR8 agonist” (CHIA TAI TIANQING PHARMACEUTICAL GROUP CO., LTD., priority 2018, dated 2024).
pEC50: −log10 of the molar value.

How the values were obtained:
Format in all cases: cell-based
[1] = tested on: human peripheral blood mononuclear cells (hPBMCs); assay: IFN-α induction in peripheral blood mononuclear cells, ELISA; conditions: PBMC, hPBMC, 24 h incubation, supernatant, up to 50 μM
Description: (§1) TLR8 is a receptor for the innate immune system to sense exogenous pathogens, and can recognize exogenous viral single-stranded RNA and cause the release of a series of cytokines such as TNF-α, IL-12, IFN-γ to elicit an antiviral immune response; TLR7 is another receptor for the innate immune system to sense exogenous pathogens and, when activated, produces primarily such antiviral cytokines as IFN-α. In this experiment, a potential compound of TLR8 agonist was used to stimulate human peripheral blood mononuclear cells (hPBMCs), and the levels of TNF-α, IL-12p40, IFN-γ and IFN-α above were measured to reflect the activation of the compound on TLR8 receptor and its selectivity for TLR8/TLR7.
• 1. […] After the cells were counted with Vi-cell cell counter, the concentration of cell suspension was adjusted to 2×10^6/mL; • 3. […] IL-12p40, TNF-α and IFN-γ in the supernatant were detected by flow cytometric bead array (CBA); IFN-α in the cell supernatant was detected by enzyme-linked immuno sorbent assay (ELISA). • 6. Data analysis: compound activity: EC50 values (half maximal effect concentration) were analyzed using a GraphPad Prism software and the dose-response curves of the compound were fitted to calculate EC50 values for the compound.

Human TLR7 = Human TLR7 (Homo sapiens (Human), UniProt Q9NYK1); assay: HEK-Blue hTLR7 SEAP reporter gene assay (agonistic activity); conditions: HEK-Blue hTLR7 cells, 24 h incubation, SEAP by QUANTI-Blue OD650
Human TLR7, sequence (Q9NYK1 27-1049): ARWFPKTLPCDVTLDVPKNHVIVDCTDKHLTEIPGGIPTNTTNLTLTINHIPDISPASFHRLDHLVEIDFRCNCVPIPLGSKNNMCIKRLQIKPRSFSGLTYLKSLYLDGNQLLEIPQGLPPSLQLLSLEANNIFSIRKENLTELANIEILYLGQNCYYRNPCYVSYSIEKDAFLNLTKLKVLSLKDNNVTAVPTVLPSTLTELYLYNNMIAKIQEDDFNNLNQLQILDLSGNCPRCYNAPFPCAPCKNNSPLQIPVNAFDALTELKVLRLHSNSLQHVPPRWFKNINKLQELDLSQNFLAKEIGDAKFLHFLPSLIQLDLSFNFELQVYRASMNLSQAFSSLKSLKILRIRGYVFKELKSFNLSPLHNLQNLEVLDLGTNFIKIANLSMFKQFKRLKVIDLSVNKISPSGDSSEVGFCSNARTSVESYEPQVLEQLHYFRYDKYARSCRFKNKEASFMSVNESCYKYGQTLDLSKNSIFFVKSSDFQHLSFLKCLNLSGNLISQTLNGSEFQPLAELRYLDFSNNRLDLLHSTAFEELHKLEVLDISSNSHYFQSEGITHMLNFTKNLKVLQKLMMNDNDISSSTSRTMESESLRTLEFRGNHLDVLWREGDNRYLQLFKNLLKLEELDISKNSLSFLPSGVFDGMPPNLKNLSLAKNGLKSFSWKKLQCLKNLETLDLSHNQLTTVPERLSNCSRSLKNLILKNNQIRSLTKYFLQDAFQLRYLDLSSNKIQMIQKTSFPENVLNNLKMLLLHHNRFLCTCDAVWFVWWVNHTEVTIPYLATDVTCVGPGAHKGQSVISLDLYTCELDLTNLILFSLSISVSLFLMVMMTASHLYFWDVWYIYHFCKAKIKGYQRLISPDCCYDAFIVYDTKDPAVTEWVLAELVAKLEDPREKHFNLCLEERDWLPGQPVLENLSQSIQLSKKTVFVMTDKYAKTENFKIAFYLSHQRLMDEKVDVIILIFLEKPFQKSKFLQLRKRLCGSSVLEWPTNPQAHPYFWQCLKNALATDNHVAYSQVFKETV
Description: (§2) The HEK-Blue™ hTLR7 (catalog No.: hkb-ht1r7) and HEK-Blue™ hTLR8 (catalog No.: hkb-ht1r8) cell lines used in this experiment were purchased from InvivoGen. The two cell lines were constructed by a human embryonic kidney 293 cell line stably co-transfecting hTLR7 or hTLR8 and inducing expression of Secreted Alkaline Phosphatase (SEAP) reporter gene, wherein SEAP reporter gene was regulated by an IFN-β promoter. The promoter was fused with NF-κB and AP-1 binding sites. hTLR7 or hTLR8 agonist can activate NF-κB and AP-1 and induce the expression and secretion of SEAP. The agonistic activity of compound for hTLR7 and hTLR8 receptors was identified by measuring the expression level of SEAP using QUANTI-Blue™ reagent.
(§3) • 1. Compound was diluted in 3-fold gradients (10 concentration points in total) and added to the cell plate in duplicate. 1 μL of DMSO was added to each negative control well. • 2. The cells cultured in a T150 flask were taken out from a CO2 incubator, and the cell culture supernatant was discarded. The resulting cells were washed once with Dulbecco's phosphate buffered saline (DPBS). The flask was added with about 10 mL of the culture medium, and tapped to detach the cells. The resulting cell mass was gently pipetted evenly. The cells were counted and the cell suspension was adjusted to 500,000 cells/mL with the culture medium. Then 100 μL of diluted cells were added to each well (50,000 cells/well) of a 96-well plate containing the compound. • 3. The compound and cells were incubated in an incubator at 37° C., 5% CO2 for 24 h. • 4. Activity assay on the compound: 20 μL of the induced cell supernatant from each well was added to a cell culture plate containing 180 μL of QUANTI-Blue™ reagent, and after incubation at 37° C. for 1 h, the optical density absorbance at 650 nm (OD650) was assayed for each well using a multi-functional microplate reader. • 5. Activity assay on the cells: luciferase signal (RLU) was detected using a multi-functional microplate reader as per the process described in the instructions of ATPlite 1Step. • 6. Data analysis: compound activity: OD650 values were analyzed using GraphPad Prism software and the dose-response curves of the compounds were fitted to calculate EC50 values (half maximal effect concentration) for the compounds.

Human TLR8 = Human TLR8 (Homo sapiens (Human), UniProt Q9NR97); assay: HEK-Blue hTLR8 SEAP reporter gene assay (agonistic activity); conditions: HEK-Blue hTLR8 cells, 24 h incubation, SEAP by QUANTI-Blue OD650
Human TLR8, sequence (Q9NR97 27-1041): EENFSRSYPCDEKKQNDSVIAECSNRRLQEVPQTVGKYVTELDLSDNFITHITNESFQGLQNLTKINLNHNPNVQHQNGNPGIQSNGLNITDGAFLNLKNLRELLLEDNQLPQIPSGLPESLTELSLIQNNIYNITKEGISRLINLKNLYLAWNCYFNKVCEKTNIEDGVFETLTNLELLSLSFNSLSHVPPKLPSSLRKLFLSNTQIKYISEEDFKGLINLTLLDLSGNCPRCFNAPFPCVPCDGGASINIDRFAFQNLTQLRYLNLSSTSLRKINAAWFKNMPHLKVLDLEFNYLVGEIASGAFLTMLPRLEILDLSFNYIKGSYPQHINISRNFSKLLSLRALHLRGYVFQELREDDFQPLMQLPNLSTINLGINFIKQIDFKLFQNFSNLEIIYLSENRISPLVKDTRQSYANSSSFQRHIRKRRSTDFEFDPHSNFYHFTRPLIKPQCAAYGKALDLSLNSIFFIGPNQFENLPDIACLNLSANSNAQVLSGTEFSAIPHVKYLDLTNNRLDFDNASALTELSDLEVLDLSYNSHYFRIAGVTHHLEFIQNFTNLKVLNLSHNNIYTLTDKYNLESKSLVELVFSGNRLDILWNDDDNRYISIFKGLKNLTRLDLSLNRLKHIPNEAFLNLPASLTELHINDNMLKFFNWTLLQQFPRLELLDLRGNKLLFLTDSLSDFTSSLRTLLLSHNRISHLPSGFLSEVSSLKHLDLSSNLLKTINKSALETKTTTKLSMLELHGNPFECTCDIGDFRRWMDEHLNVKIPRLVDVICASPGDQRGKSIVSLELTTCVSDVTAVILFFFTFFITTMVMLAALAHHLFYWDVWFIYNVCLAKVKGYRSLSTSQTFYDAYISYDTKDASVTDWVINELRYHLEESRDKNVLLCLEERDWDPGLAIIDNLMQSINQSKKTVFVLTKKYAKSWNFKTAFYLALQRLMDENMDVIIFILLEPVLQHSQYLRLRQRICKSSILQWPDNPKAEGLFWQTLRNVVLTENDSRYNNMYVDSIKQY
Description: as §2, §3

[2] = tested on: human peripheral blood mononuclear cells (hPBMCs); assay: Cytokine induction (IL-12p40, IFN-γ, TNF-α) in peripheral blood mononuclear cells, flow cytometric bead array; conditions: PBMC, hPBMC, 24 h incubation, supernatant, CBA
Description: as §1
• 1. Fresh blood of healthy volunteers was collected and anticoagulated with an EDTA-K2 anticoagulation tube (catalog No.: BD-8516542); • 2. hPBMC cells in the middle cloud-like layer were separated after Ficoll density gradient centrifugation, and washed twice with RPMI1640 (source: Gibco, catalog No.: 224400-089) containing 10% serum, and the culture medium was resuspended to 10 mL. After the cells were counted with Vi-cell cell counter, the concentration of cell suspension was adjusted to 2×10^6/mL; • 3. The compound was dissolved in DMSO to 100 mM, and diluted to 50 mM and 2 mM with DMSO, which were served as initial concentrations. Then the solutions were each diluted sequentially in a 3-fold gradient (sample at a previous concentration (5 μL)+DMSO (10 μL)) to obtain 8 gradients. The resulting solutions were respectively subjected to 500-fold dilution with the culture medium to prepare the working solutions of the compound; • 4. […] IL-12p40, TNF-α and IFN-γ in the supernatant were detected by flow cytometric bead array (CBA); IFN-α in the cell supernatant was detected by enzyme-linked immuno sorbent assay (ELISA). • 6. Data analysis: compound activity: EC50 values (half maximal effect concentration) were analyzed using a GraphPad Prism software and the dose-response curves of the compound were fitted to calculate EC50 values for the compound.

| Structure (SMILES) | pEC50 [1] | pEC50 (Human TLR7) | pEC50 (Human TLR8) | pEC50 ([2]; read-out: IFN-γ EC50) | pEC50 ([2]; read-out: IL-12p40 EC50) | pEC50 ([2]; read-out: TNF-α EC50) |
| --- | --- | --- | --- | --- | --- | --- |
| CCCCC(C)(CNC(=O)[C@@H]1CCCN1)Nc1nc(N)nc2cccnc12 (single isomer, unassigned) [Compound 1] | < 4.30 | < 4.82 | 8.70 | 7.82 | 8.22 | 7.52 |
| CCCCC(C)(CNC(=O)[C@@H]1COCCN1)Nc1nc(N)nc2cccnc12 (single isomer, unassigned) [Compound 4] |  | < 4.82 | 7.85 |  |  |  |
| CCCCC(C)(CNC(=O)[C@@H]1CC(F)(F)CN1)Nc1nc(N)nc2cccnc12 (single isomer, unassigned) [Compound 5] |  | < 4.82 | 6.97 |  |  |  |
| CCCCC(C)(CNC(=O)[C@@H]1CCCCN1)Nc1nc(N)nc2cccnc12 (single isomer, unassigned) [Compound 6] |  | < 4.82 | 7.74 |  |  |  |
| CCCCC(C)(CNC(=O)[C@@H]1CCN1)Nc1nc(N)nc2cccnc12 (single isomer, unassigned) [Compound 7] |  | < 4.82 | 7.82 |  |  |  |
| CCCCC(C)(CNC(=O)[C@@H]1CCCN1)Nc1nc(N)nc2cnccc12 (stereo partly drawn) [Compound 2] |  | < 4.82 | 8.22 |  |  |  |
| CCCCC(C)(CNC(=O)[C@@H]1CCCN1)Nc1nc(N)nc2ccccc12 (stereo partly drawn) [Compound 3] |  | < 4.82 | 7.49 |  |  |  |
